What was measured:
[1] = molecular target: EGFR wild type (EGFR WT) (Homo sapiens (Human), UniProt P00533); experiment: Cellular Phosphorylation Assay, Assay 5 (EGF-stimulated EGFR phosphorylation, NIH 3T3 cells); format: cell-based; details: EGF-stimulated EGFR WT phosphorylation
[2] = molecular target: ErbB2 with Exon 20 YVMA insertion (HER2-YVMA) (Homo sapiens (Human), UniProt P04626, INS775YVMA); experiment: Cellular Phosphorylation Assay, Assay 4 (constitutive ErbB2 phosphorylation, NIH 3T3 cells); format: cell-based; details: ErbB2 YVMA phosphorylation
[3] = molecular target: ErbB2 WT (Homo sapiens (Human), UniProt P04626); experiment: ErbB Enzyme Assay (HTRF KinEASE-TK), Assay 2; format: biochemical; details: ErbB2 WT enzyme
[4] = molecular target: EGFR (Homo sapiens (Human), UniProt P00533); experiment: ErbB Enzyme Assay (HTRF KinEASE-TK), Assay 3; format: biochemical; details: EGFR enzyme
[5] = molecular target: BCRP (Homo sapiens (Human), UniProt Q9UNQ0); experiment: BCRP MDCKII efflux assay (Assay 7); format: in vitro ADME; details: dog; efflux ratio Papp(B-A)/Papp(A-B), BCRP MDCKII cells; read-out: Assay 7 Pe Ratio
Experimental: Assay conditions included with and without the BCRP-specific inhibitor, KO143, at a concentration of 0.3 μM to ascertain the contribution of BCRP to the efflux value of the test compound.
Final organic concentration in the assay was 1%.

Chain of BCRP (Q9UNQ0 whole entry): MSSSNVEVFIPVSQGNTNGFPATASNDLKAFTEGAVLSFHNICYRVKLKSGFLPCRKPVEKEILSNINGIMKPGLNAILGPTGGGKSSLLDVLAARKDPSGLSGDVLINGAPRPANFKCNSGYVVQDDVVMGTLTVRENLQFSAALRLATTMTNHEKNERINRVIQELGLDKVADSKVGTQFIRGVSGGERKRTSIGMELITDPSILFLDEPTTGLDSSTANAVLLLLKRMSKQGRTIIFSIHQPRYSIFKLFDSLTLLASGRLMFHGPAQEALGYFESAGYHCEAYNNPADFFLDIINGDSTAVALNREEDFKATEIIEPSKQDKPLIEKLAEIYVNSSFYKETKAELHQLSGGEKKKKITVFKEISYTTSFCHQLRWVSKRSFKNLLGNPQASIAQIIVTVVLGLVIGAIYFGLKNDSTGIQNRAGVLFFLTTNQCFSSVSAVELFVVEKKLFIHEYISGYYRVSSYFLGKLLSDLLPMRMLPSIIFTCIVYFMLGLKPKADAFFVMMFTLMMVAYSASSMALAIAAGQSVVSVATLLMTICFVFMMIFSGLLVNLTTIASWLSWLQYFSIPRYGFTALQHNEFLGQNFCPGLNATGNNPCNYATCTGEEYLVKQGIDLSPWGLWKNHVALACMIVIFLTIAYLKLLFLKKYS
Chain of ErbB2 WT (P04626 23-1255): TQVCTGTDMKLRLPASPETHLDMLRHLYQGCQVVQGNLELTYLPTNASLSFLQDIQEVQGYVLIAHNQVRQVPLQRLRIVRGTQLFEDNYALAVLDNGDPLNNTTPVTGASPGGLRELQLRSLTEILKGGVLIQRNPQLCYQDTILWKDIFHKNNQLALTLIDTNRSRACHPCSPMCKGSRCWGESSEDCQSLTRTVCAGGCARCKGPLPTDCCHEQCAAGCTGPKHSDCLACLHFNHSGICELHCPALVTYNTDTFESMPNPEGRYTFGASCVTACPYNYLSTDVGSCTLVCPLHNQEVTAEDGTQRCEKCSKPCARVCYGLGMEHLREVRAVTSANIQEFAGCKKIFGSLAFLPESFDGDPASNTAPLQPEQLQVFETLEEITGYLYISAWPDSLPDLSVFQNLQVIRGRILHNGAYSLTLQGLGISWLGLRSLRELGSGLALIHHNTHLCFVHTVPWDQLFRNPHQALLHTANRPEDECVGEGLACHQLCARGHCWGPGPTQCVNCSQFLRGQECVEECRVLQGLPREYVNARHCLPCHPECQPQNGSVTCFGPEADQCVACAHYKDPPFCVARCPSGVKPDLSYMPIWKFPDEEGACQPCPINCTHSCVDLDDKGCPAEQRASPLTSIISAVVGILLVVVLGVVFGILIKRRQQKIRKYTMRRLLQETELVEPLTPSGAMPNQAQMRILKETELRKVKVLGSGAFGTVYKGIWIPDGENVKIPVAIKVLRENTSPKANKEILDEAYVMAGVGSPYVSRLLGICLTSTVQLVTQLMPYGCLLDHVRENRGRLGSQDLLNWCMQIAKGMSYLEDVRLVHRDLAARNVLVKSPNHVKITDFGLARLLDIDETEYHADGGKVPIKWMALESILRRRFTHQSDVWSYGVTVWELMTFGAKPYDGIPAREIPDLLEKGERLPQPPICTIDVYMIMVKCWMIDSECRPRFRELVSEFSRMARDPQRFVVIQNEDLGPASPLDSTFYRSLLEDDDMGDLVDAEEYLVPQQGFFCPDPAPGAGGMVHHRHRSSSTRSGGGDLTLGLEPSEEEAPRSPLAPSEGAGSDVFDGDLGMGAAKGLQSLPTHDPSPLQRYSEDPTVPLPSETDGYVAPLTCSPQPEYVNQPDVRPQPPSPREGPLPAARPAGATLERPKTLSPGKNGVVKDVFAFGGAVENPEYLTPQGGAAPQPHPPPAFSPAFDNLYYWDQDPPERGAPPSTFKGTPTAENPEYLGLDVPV
Chain of ErbB2 with Exon 20 YVMA insertion (HER2-YVMA) (P04626 other isoform, or with tags, fused parts or gaps ins YVMA behind 775): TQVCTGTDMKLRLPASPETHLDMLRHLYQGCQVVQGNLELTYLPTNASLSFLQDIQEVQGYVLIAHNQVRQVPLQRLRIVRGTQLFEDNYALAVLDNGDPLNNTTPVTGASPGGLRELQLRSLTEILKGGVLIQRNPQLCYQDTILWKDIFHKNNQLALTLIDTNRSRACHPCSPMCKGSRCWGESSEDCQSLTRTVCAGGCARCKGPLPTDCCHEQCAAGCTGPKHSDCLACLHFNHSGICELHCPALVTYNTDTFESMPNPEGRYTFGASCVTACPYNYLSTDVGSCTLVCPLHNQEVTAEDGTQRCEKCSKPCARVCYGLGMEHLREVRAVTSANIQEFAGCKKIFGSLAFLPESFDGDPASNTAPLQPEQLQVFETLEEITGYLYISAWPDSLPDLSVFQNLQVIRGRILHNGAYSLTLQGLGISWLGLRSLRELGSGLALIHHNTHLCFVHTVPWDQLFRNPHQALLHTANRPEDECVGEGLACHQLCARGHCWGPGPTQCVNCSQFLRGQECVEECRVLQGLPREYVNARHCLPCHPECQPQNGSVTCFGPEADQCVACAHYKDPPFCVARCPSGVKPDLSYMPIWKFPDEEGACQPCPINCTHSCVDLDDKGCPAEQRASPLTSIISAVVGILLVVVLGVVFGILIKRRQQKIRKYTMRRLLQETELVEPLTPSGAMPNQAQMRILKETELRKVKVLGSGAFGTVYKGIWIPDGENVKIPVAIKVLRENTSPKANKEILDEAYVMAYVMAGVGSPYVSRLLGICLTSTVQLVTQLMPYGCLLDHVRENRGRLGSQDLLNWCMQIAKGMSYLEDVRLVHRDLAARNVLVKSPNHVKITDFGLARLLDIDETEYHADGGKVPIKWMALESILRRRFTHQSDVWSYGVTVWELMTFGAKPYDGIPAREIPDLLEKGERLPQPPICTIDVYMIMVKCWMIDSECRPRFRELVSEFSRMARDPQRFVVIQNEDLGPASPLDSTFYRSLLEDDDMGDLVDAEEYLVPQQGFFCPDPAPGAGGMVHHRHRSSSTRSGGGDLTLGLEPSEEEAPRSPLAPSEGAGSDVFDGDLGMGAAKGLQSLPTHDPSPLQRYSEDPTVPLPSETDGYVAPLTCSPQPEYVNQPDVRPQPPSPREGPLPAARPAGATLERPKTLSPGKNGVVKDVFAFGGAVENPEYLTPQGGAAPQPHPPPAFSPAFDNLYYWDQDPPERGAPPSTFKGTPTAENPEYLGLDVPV
Chain of EGFR wild type (EGFR WT) (P00533 25-1210): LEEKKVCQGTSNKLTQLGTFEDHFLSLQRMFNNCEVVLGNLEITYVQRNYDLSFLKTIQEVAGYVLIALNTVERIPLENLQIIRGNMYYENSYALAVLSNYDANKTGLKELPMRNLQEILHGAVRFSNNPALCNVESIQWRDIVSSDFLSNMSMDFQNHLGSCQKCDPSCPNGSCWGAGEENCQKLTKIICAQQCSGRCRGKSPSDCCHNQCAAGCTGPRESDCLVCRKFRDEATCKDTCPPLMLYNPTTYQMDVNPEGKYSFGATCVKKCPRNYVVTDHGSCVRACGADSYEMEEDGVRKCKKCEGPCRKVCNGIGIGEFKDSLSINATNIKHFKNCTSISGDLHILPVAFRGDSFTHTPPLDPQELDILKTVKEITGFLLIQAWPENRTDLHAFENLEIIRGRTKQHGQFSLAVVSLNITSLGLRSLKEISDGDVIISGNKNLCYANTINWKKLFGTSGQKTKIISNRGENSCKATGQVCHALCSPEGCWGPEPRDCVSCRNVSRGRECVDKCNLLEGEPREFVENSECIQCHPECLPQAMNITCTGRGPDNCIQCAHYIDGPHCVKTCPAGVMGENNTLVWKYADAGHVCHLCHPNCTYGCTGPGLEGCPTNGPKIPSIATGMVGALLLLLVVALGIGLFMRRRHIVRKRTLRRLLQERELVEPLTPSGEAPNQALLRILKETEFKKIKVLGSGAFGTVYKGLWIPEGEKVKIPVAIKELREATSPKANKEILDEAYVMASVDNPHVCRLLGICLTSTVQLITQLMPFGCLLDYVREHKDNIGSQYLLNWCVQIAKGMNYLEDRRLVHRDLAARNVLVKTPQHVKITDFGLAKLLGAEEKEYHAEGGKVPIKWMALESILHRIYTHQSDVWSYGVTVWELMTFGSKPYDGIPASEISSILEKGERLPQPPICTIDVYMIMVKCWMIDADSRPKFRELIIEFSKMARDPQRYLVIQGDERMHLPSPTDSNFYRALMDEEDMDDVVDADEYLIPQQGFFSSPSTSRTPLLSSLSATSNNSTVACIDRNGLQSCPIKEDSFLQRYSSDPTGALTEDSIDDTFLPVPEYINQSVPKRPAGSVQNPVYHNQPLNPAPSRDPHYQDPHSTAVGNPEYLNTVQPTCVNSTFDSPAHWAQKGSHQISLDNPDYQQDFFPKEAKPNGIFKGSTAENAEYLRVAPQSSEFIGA

SMILES | IC50 [1] [nM] | IC50 [2] [nM] | IC50 [3] [nM] | IC50 [4] [nM] | efflux ratio at 2 h, 1 µM [5]
C=CC(=O)N1CCN(c2nc3c(Nc4ccc(Oc5ccn6ncnc6c5)c(C)c4F)ncnc3cc2OC)CC1 [Example 152, 1-(4-(4-((4-([1,2,4]triazolo[1,5-a]pyridin-7-yloxy)-2-fluoro-3-methylphenyl)amino)-7-methoxypyrido[3,2-d]pyrimidin-6-yl)piperazin-1-yl)prop-2-en-1-one] | 613 | 20.9 | 37.3 | 1040 | 17.5
C=CC(=O)N1CCC(Oc2nc3c(Nc4ccc(Oc5ccc6cn(C)nc6c5)c(C)c4)ncnc3cc2OC)CC1 [Example 157, 1-(4-((7-methoxy-4-((3-methyl-4-((2-methyl-2H-indazol-6-yl)oxy)phenyl)amino)pyrido[3,2-d]pyrimidin-6-yl)oxy)piperidin-1-yl)prop-2-en-1-one] | 1740 | 21.3 | 209 | 2270 | 6.8
C=CC(=O)N1CCC(Sc2nc3c(Nc4ccc(Oc5ccc6c(c5)ncn6C)c(C)c4)ncnc3cc2OC)CC1 [Example 159, 1-(4-((7-methoxy-4-((3-methyl-4-((1-methyl-1H-benzo[d]imidazol-5-yl)oxy)phenyl)amino)pyrido[3,2-d]pyrimidin-6-yl)thio)piperidin-1-yl)prop-2-en-1-one] | 493 | 12 | 20.4 | 452 | 15
C=CC(=O)N1C[C@H](c2ccc3ncnc(Nc4cc(C)c(Oc5ccc6c(c5)ncn6C)cc4F)c3n2)C[C@H]1C [Example 192, 1-((2R,4R)-4-(4-((2-fluoro-5-methyl-4-((1-methyl-1H-benzo[d]imidazol-5-yl)oxy)phenyl)amino)pyrido[3,2-d]pyrimidin-6-yl)-2-methylpyrrolidin-1-yl)prop-2-en-1-one] | ≥ 5000 | 22.1 | 132 | ≥ 10000 | 2.1
C=CC(=O)N1[C@@H]2CC[C@H]1C[C@H](c1ccc3ncnc(Nc4ccc(Oc5ccc6c(c5)ncn6C)c(C)c4F)c3n1)C2 [Example 195, 1-((1R,3s,5S)-3-(4-((2-fluoro-3-methyl-4-((1-methyl-1H-benzo[d]imidazol-5-yl)oxy)phenyl)amino)pyrido[3,2-d]pyrimidin-6-yl)-8-azabicyclo[3.2.1]octan-8-yl)prop-2-en-1-one] | 1060 | 17.9 | 59.7 | 2550 | 1.7
C=CC(=O)N1CC(c2ccc3ncnc(Nc4cc(C)c(Oc5ccc6c(c5)ncn6C)cc4F)c3n2)CCC12CC2 (stereo not shown) [Example 196, 1-(6-(4-((2-fluoro-5-methyl-4-((1-methyl-1H-benzo[d]imidazol-5-yl)oxy)phenyl)amino)pyrido[3,2-d]pyrimidin-6-yl)-4-azaspiro[2.5]octan-4-yl)prop-2-en-1-one] | 2010 | 33.8 | 42.9 | 1160 | 2.5
C=CC(=O)N1[C@@H]2CC[C@H]1C[C@@H](c1ccc3ncnc(Nc4ccc(Oc5cnc6c(c5)ncn6C)c(C)c4)c3n1)C2 [Example 219, 1-((1R,3r,5S)-3-(4-((3-methyl-4-((3-methyl-3H-imidazo[4,5-b]pyridin-6-yl)oxy)phenyl)amino)pyrido[3,2-d]pyrimidin-6-yl)-8-azabicyclo[3.2.1]octan-8-yl)prop-2-en-1-one] | ≥ 5000 | 20.1 | 111 | 3660 | 9.3
C=CC(=O)N1C[C@H]2CC[C@@H]1CN2c1ccc2ncnc(Nc3ccc(Oc4cnc5c(c4)ncn5C)c(C)c3F)c2n1 [Example 236, 1-((1R,4R)-5-(4-((2-fluoro-3-methyl-4-((3-methyl-3H-imidazo[4,5-b]pyridin-6-yl)oxy)phenyl)amino)pyrido[3,2-d]pyrimidin-6-yl)-2,5-diazabicyclo[2.2.2]octan-2-yl)prop-2-en-1-one] | ≥ 5000 | 24.6 | 1170 | ≥ 10000 | 6.8
